For series [1], the system named is rat. The experiment in a line: Rotorod test (sedative/hypnotic activity and duration of action). Conditions: for TD50: Rattus norvegicus, 1 min, read-out: RR TD50 po; for Number of animals passing the rotorod test at 240 minutes: given for compounds with duration of action >240 minutes; for Duration of action: at lowest dose where all animals failed the rotorod test, time until all animals pass again. The class given is in vivo. As for the experimental part: (§1) Table I below compares the in vitro potencies [ability to inhibit the binding of [^35S]-tert-butylbicyclophosphorothionate (TBPS)], rotorod TD50's (dose at which half of animals tested fail to stay on a rotating rod for 1 minute) and the length of time before all animals tested are able to pass rotorod test (duration of action) of closely structurally related pairs of 3β-methyl and 3β-methoxymethyl steroids. These methods for measuring in vitro and in vivo activity of compounds of the invention are fully described in U.S. Pat. No. 5,232,917. The TBPS assay gives the in vitro potency of compounds whereas the rotorod assay estimates the sedative/hypnotic activity of compounds. Since the duration of action of a compound is dependent on the dose and will be prolonged at higher doses, the duration of action was measured at the lowest dose where all of the animals failed the rotorod test. For compounds with duration of action >240 minutes, the number of animals passing the rotorod test at 240 minutes is given in parentheses. In each pair, the […] steroid has a biological duration action of greater than 240 minutes, while in each of the corresponding 3β-methoxymethyl steroids the duration of action is reduced to 180 minutes or less. […] Thus, specific 3β-methoxymethyl-substituted neuroactive steroids gave unique and unexpected pharmacokinetic profiles, making them especially useful as sedative/hypnotic and anesthetic agents.
In general terms: The rotarod test checks motor coordination on a turning rod.

The target in series [2] is [35S]-tert-butylbicyclophosphorothionate (TBPS) binding. The experiment in a line: Inhibition of [35S]-TBPS binding (in vitro potency). Set-up: species or system rat. Conditions: dose of steroid inhibiting 50% of specific binding of [35S]-TBPS. As for the experimental part:
as §1

Setting [3] is: po, po, dose at which half of animals fail to stay on a rotating rod for 1 minute.

For the compound `COCC1(O)CCC2(C)C(CCC3C2CCC2(C)C(C(=O)Cn4ccnc4)CCC32)C1` (stereo not drawn) [3α-Hydroxy-21-(1′-imidazolyl)-3β-methoxymethyl-5β-pregnan-20-one], in series [1] (setting [3]), the TD50 (usually the dose at which the toxic effect under study appears in half of the subjects) stood at 30 mg/kg.

In the case of `CC1(O)CCC2(C)C(CCC3C2CCC2(C)C(C(=O)Cn4ccnc4)CCC32)C1` (stereo not drawn) [3α-Hydroxy-21-(1′-imidazolyl)-3β-methyl-5α-pregnan-20-one, reference compound], in series [1], the “Number of animals passing the rotorod test at 240 minutes” value (“Number” for short) is on record as “(3/8” and the Duration of action was over 240 min. Besides, the TD50 in series [1] (setting [3]) was 31 mg/kg. The IC50 – broadly, the point on the concentration scale where inhibition reaches its midpoint – in series [2] was found to be 97 nM.

For `COCC1(O)CCC2(C)C(CCC3C2CCC2(C)C(C(=O)Cn4ncnn4)CCC32)C1` (stereo not drawn) [3α-Hydroxy-3β-methoxymethyl-21-(2′-tetrazolyl)-5α-pregnan-20-one], the TD50 in series [1] (setting [3]) was 35 mg/kg. In series [1], this compound gave a Duration of action of 120 min. The compound also returned an IC50 in series [2] of 24 nM.

`COCC1(O)CCC2(C)C(CCC3C2CCC2(C)C(C(=O)Cn4ccnc4)CCC32)C1` (stereo not drawn) [3α-Hydroxy-21-(1′-imidazolyl)-3β-methoxymethyl-5α-pregnan-20] [3α-Hydroxy-21-(1′-imidazolyl)-3β-methoxymethyl-5α-pregnan-20-one]: the Duration of action in series [1] came to 140 min. In addition, the “RR TD50 po” value in series [1] (po, dose at which half of animals fail to stay on a rotating rod for 1 minute) is 28 mg/kg. In series [2], this compound gave an IC50 of 138 nM.

As to `COCC1(O)CCC2(C)C(CCC3C2CCC2(C)C(C(=O)CSc4nnc(N)s4)CCC32)C1` (stereo not drawn) [21-(5′-Amino-[1,3,4]-thiadiazol-2-ylthio)-3 α-hydroxy-3β-methoxymethyl-5α-pregnan-20-one], the melting point (usually the temperature, or range, at which the solid turns liquid) lay in the range of 169 to 172 °C. The TD50 in series [1] (setting [3]) came to 40 mg/kg. In addition, in series [1], the Duration of action was under 90 min. Moreover, the IC50 in series [2] was determined as 48 nM.

For the compound `COCC1(O)CCC2(C)C(CCC3C2CCC2(C)C(C(=O)COc4ccc5c(ccc[n+]5[O-])c4)CCC32)C1` (stereo not drawn) [3α-Hydroxy-3β-methoxymethyl-21-(quinolin-6-yloxy)-5α-pregnan-20-one, N-oxide], the TD50 in series [1] (setting [3]) was 29 mg/kg. The compound further yielded a Duration of action in series [1] of 84 min. The half-maximal inhibitory concentration (IC50) in series [2] amounted to 25 nM.

Consider `COCC1(O)CCC2(C)C(CCC3C2CCC2(C)C(C(=O)Cn4ccnc4)CCC32)C1` (stereo not drawn) [3α-Hydroxy-21-(1′-imidazolyl)-3β-methoxymethyl-5β-pregnan-20] [3α-Hydroxy-21-(1′-imidazolyl)-3β-methoxymethyl-5β-pregnan-20-one], for which the Duration of action in series [1] was under 180 min. In series [2], the IC50 was found to be 174 nM.

Consider `CC1(O)CCC2(C)C(CCC3C2CCC2(C)C(C(=O)Cn4ncnn4)CCC32)C1` (stereo not drawn) [3α-Hydroxy-3β-methyl-21-(2′-tetrazolyl)-5α-pregnan-20-one, reference compound], for which, in series [1], the “Number” value is listed as “(0/8” and the Duration of action was over 240 min. Moreover, the TD50 in series [1] (setting [3]) worked out at 4.5 mg/kg. Besides, the IC50 in series [2] stood at 44 nM.

With `CC1(O)CCC2(C)C(CCC3C2CCC2(C)C(C(=O)COc4ccc5c(ccc[n+]5[O-])c4)CCC32)C1` (stereo not drawn) [3α-Hydroxy-3β-methyl-21-(quinolin-6-yloxy)-5α-pregnan-20-one, N-oxide, reference compound], in series [1], the “Number” value was “(1/8” and the Duration of action is over 240 min. In series [1] (setting [3]), the TD50 was 15 mg/kg. Also, the IC50 in series [2] is 46 nM.

The values above are taken from US20040034002A1, “3Alpha-hydroxy-3beta-methoxymethyl-substituted steroids and the use thereof” (Euro-Celtique S.A., priority 1999, published 2004).
